Patent publication US20230406837A1, “SULFAMATE MODULATORS OF PIN1 ACTIVITY AND USES THEREOF” (Yeda Research and Development Co., Ltd., priority 2022, published 2023)
Entries after “also recorded” stand apart in the source; their conditions may differ. Blank lines part the entries; values can stand above or below the molecule they belong to.

What was measured:
[1] = Buffer stability assay (hydrolysis by LC/MS); format: physicochemical; conditions: for hydrolysis in PBS buffer (FIG. 13): 100 μM, pH 8, 37° C. for four days; for hydrolysis in PBS buffer: pH 8, 37° C., after 2 days
Protocol: FIG. 8: Buffer stability of model compounds. […] The percentage of hydrolysis was quantified using LC/MS at a wavelength of 220 nm.
FIG. 13: Sulfonate and sulfamate compounds. […] For compounds Sulfopin, 4a, and 4b, spectra at 220 nm were taken to show the peaks. […] “#” refers to hydrolysis product “*” refers to unidentified peak.
Reaction mixtures were kept at 37° C. with shaking.

[2] = biological target: T1, Pin1 Cys113 (Homo sapiens, UniProt Q13526); assay: Competitive isoTOP-ABPP in PATU-8988T cells; format: cell-based; conditions: for peptides labeled with an H/L ratio >2: out of about 3,000 cysteines identified
T1 construct: endogenous in cells
Protocol: FIGS. 11A-11E: Sulfamate acetamides as potent and selective Pin1 inhibitors. FIG. 11A. Chemical structures of the sulfonate and sulfamate compounds (4a-4g). FIG. 11B. Deconvoluted LC/MS spectrum for Pin1 (2 μM) incubated with 4 g at pH 7.5, 25° C., 1 h. The adduct mass corresponds to a labeling event in which the sulfamate group was released. FIG. 11C. Percent of Pin1 labeling (2 μM) with the probes (4a-4g; 2 μM; y-axis) compared to their intrinsic thiol reactivity as assessed by their rate of reaction in a DTNB assay (x-axis). FIG. 11D. Cellular engagement of the Sulfamates. OCI-AML2 cells were treated with DMSO, Sulfopin or sulfamate compounds (4c, 4d, 4g) at 0.5 and 2.5 μM concentration for 4 hours. Lysates were then incubated with a Sulfopin desthiobiotin (DTB) probe (1 μM), pulled down using streptavidin beads before running a western blot against Pin1. FIG. 11E. IsoDTB ABPP experiment with sulfopin and sulfamate compound 4d. […] The labeled peptides were pull-down with streptavidin beads and analysed by LC/MS/MS (similar protocol to BTK, see FIG. 521; n=4). Proteins in the box have a heavy to light (H/L) ratio ≥2. Only peptides detected in three out of four repetitions are presented.

[3] = Metabolic stability in liver microsomes; format: in vitro ADME; conditions: LC/MS/MS
Protocol: FIG. 14: Sulfamates compounds show high metabolic stability. Compounds (Sulfopin, 4d, 4e, and 4g) were incubated in liver microsomes and injected to LC/MS/MS at indicated time points. The peak intensities of the compounds were measured in UV spectra.

[4] = biological target: T2, Pin1 (Homo sapiens, UniProt Q13526); assay: Kinetics of Pin1 binding (KI and Kinact) by LC-MS; design: made in house; kinact: unit not given here; conditions: for Ki: read-out: K1 value (KI)
From the text: The reaction was monitored by LC-MS. FIGS. 17B and 17D. The rate constants as extrapolated from FIGS. 17A and 17C, respectively, as a function of the concentration of sulfopin and 4d.
Target sequence in this assay (Q13526 whole entry): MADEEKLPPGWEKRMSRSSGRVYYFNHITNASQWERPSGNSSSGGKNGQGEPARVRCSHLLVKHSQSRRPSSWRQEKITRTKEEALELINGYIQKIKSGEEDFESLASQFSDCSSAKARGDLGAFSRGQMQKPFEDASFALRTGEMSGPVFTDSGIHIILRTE

[5] = biological target: T2, Pin1; assay: In-vitro Pin1 covalent labeling by intact protein LC/MS; format: binding; design: The catalytic domain of Pin1 (2 μM) in 20 mM Tris, 75 mM NaCl, pH 7.5 was incubated with 2 μM Sulfamate; made in house; conditions: 2 μM compound, 2 μM Pin1, pH 7.5, 1 h, 25° C.
Protocol: Pin1 was expressed and purified as previously reported^38. The catalytic domain of Pin1 (2 μM) in 20 mM Tris, 75 mM NaCl, pH 7.5 was incubated with 2 μM Sulfamate (4a-4g) for 1 h at 25° C.
The reaction mixtures, at room temperature for various times, were injected into the LC/MS. For data analysis, the raw spectra were deconvoluted using a 20000:40000 Da (For Pin1, 10000:30000) window and 1 Da resolution. The labeling percentage for a compound was determined as the labeling of a specific compound (alone or together with other compounds) divided by the overall detected protein species.
Initially, these compounds (4a-4g; 2 μM) were incubated with Pin1 (2 μM; […] Tris buffer; pH 7.5, 1 h; 25° C.) to check covalent labeling by intact protein MS (FIG. 11B,C; FIG. 10).
Target sequence in this assay (Q13526 52-163 limits assumed): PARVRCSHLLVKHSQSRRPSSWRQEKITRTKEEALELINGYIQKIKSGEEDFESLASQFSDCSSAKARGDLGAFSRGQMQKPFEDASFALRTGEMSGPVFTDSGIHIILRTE

[6] = system: Mino cells; assay: In situ proteomic labeling with alkyne probes, in-gel fluorescence; format: cell-based; conditions: 2 h
From the text: FIGS. 5A-5C: α-sulfamate acetamide 1a-aj, and 2a-2c can show up to two orders of magnitude less reactivity towards GSH than chloroacetamide. FIG. 5A: Chemical structures of model α-sulfamate/sulfonate/sulfone acetamides. FIG. 5B: Half-life (t1/2) of the model compounds (1a-1j) assessed by GSH consumption assay via LC/MS (FIG. 4B). FIG. 5C: In situ proteomic labeling with alkyne probes (2a-2c). […] A band that is selectively detected only by compound 2a is indicated by *.
Sulfamate acetamides show attenuated and tunable proteomic reactivity. To assess proteomic selectivity in cells, two sulfamate acetamides (2a and 2b) and a chloroacetamide (2c) with an alkyne functionality have been synthesized (FIG. 3 and FIG. 4A). Mino cells were treated for two hours with either DMSO or 2a-c. Then, the cells were lysed, labeled the alkynes via copper-catalyzed “click chemistry” (CuAAC) with TAMRA-azide, and imaged the adducts via in-gel fluorescence (FIG. 4C). Similar to their reactivity pattern in the GSH reactivity assay, these compounds labeled various amounts of proteins under cellular conditions.

[7] = GSH consumption (reactivity) assay by LC/MS; conditions: for reactivity to GSH relative to chloroacetamide (1a): 5 mM GSH, 200 μM electrophile, pH 8, 14° C.; for covalent bond formation with GSH: assay conditions or temperatures up to 37° C. for 24 h
[8] = DTNB thiol reactivity assay; format: physicochemical; conditions: 200 μM compound, pH 7.4, 37° C.
Protocol: The compound 5,5′-dithio-bis(2-nitrobenzoic acid) (DTNB; 50 μM) was incubated with 200 μM tris(2-carboxyethyl)phosphine (TCEP) in 20 mM sodium phosphate buffer pH 7.4 and 150 mM NaCl for 5 min at room temperature, to obtain TNB^−2. […] UV absorbance was acquired every 15 min for 7 h. The assay was performed in a 384-well plate using a Tecan Spark 10M plate reader. […] Compounds were measured in triplicate. The data were fitted to a second-order reaction equation such that the rate constant (K) is the slope of ln([A][B0]/[B][A0]), where [A0] and [B0] are the initial concentrations of the compound (200 μM) and TNB^−2 (100 μM), respectively, and [A] and [B] are the remaining concentrations as a function of time as deduced from spectrometric measurements. Linear regression using Prism was performed to fit the rate against the first 7 h of measurements.

[9] = Pin1 0.5 μM, 100 mM Tris buffer pH 7.4, 14° C.

T1 sequence (Q13526 whole entry): as the sequence (Q13526 whole entry) above

SMILES: CC(C)(C)CN(C(=O)CCl)C1CCS(=O)(=O)C1 (centres unmarked) [Sulfopin, reference compound]
hydrolysis in PBS buffer (FIG. 13) [1]: 30% | hydrolysis in PBS buffer [1]: 30% | competition ratio (H/L) of Pin1 Cys113 [2]: highest competition ratio; also recorded: more complete target engagement | peptides labeled with an H/L ratio >2 [2]: six | metabolic stability [3]: good metabolic stability | Ki [4, 9]: 217 µM | Pin1 labeling by intact protein MS [5]: 59%

SMILES: C#Cc1ccc(NC(=O)COS(=O)(=O)NCc2ccccc2)cc1 [Compound 2a, 2-((4-ethynylphenyl)amino)-2-oxoethyl Benzylsulfamate]
proteomic reactivity (proteins labeled) [6]: enriching more proteins; also recorded: labeled a distinct protein that was not labeled by the chloroacetamide

SMILES: O=C(COS(=O)(=O)NCc1ccccc1)NCc1ccccc1 [Compound 1e, 2-(benzylamino)-2-oxoethyl Benzylsulfamate]
reactivity to GSH relative to chloroacetamide (1a) [7]: an order of magnitude less reactivity

SMILES: C#Cc1ccc(NC(=O)CCl)cc1 [Compound 2c, 2-chloro-N-(4-ethynylphenyl)acetamide]
proteomic reactivity (proteins labeled) [6]: enriching more proteins

SMILES: CS(=O)(=O)CC(=O)NCc1ccccc1 [Compound 1i, N-benzyl-2-(methylsulfonyl)acetamide]
covalent bond formation with GSH [7]: did not form a covalent bond with GSH

SMILES: CNS(=O)(=O)OCC(=O)NCc1ccccc1 [Compound 1d, 2-(benzylamino)-2-oxoethyl Methylsulfamate]
reactivity to GSH relative to chloroacetamide (1a) [7]: an order of magnitude less reactivity

SMILES: O=C(CS(=O)(=O)c1ccccc1)NCc1ccccc1 [Compound 1j, N-benzyl-2-(phenylsulfonyl)acetamide]
covalent bond formation with GSH [7]: did not form a covalent bond with GSH

SMILES: C#Cc1ccc(NC(=O)COS(=O)(=O)Nc2ccccc2)cc1 [Compound 2b, 2-((4-ethynylphenyl)amino)-2-oxoethyl Phenylsulfamate]
proteomic reactivity (proteins labeled) [6]: low reactivity

More lines, main results first:

Pin1 labeling by intact protein MS [5]: 16%
SMILES: CNS(=O)(=O)OCC(=O)N(CC(C)(C)C)C1CCS(=O)(=O)C1 (centres unmarked) [Compound 4b, 2-((1,1-dioxidotetrahydrothiophen-3-yl)(neopentyl)amino)-2-oxoethyl Methylsulfamate]

thiol reactivity relative to Sulfopin [8]: lower thiol reactivity than Sulfopin | competition ratio (H/L) of Pin1 Cys113 [2]: highest competition ratio | peptides labeled with an H/L ratio >2 [2]: six | kinact [4, 9]: 2.48 | Ki [4, 9]: 43.6 µM
SMILES: CC(C)(C)CN(C(=O)COS(=O)(=O)Nc1ccccc1)C1CCS(=O)(=O)C1 (centres unmarked) [Compound 4d, 2-((1,1-dioxidotetrahydrothiophen-3-yl)(neopentyl)amino)-2-oxoethyl Phenylsulfamate]
binding affinity to Pin1 relative to sulfopin ([4]; KI of 4d versus sulfopin): five-times better K1 value; also recorded: five-fold higher binding affinity

thiol reactivity relative to Sulfopin [8]: lower thiol reactivity than Sulfopin
SMILES: CC(C)(C)CN(C(=O)COS(=O)(=O)Nc1ccc(Br)cc1)C1CCS(=O)(=O)C1 (centres unmarked) [Compound 4e, 2-((1,1-dioxidotetrahydrothiophen-3-yl)(neopentyl)amino)-2-oxoethyl (4-bromophenyl)sulfamate]

hydrolysis in PBS buffer (FIG. 13) [1]: 15% | hydrolysis in PBS buffer [1]: 15% | Pin1 labeling by intact protein MS [5]: 18%
SMILES: CC(C)(C)CN(C(=O)COS(C)(=O)=O)C1CCS(=O)(=O)C1 (centres unmarked) [Compound 4a, 2-((1,1-dioxidotetrahydrothiophen-3-yl)(neopentyl)amino)-2-oxoethyl Methanesulfonate]

thiol reactivity relative to Sulfopin [8]: lower thiol reactivity than Sulfopin | Pin1 labeling by intact protein MS [5]: 56%
SMILES: CC(C)(C)CN(C(=O)COS(=O)(=O)NCc1ccccc1)C1CCS(=O)(=O)C1 (centres unmarked) [Compound 4c, 2-((1,1-dioxidotetrahydrothiophen-3-yl)(neopentyl)amino)-2-oxoethyl Benzylsulfamate]

thiol reactivity relative to Sulfopin [8]: slightly higher reactivity | Pin1 labeling by intact protein MS [5]: > 95%
SMILES: O=C(COS(=O)(=O)Nc1ccccc1)N(CC1CCCCC1)C1CCS(=O)(=O)C1 (centres unmarked) [Compound 4g, 2-((cyclohexylmethyl)(1,1-dioxidotetrahydrothiophen-3-yl)amino)-2-oxoethyl Phenylsulfamate]
